Source: patent US4751302A, “Indazole derivatives” (priority 1982, dated 1988)

Columns and labels:
[1] = test system: carrageenin edema on hind paw; assay: Carrageenin edema inhibition, comparison with 3-amino-5-chloroindazole; type: in vivo, female Wister rats; settings: oral; for inhibition to the (carrageenin) edema: after 3 hours from the injection of 1% carrageenin
Procedure: (§1) To female Wister rats weighing 130-150 g nothing was fed for 19 hours. Then, the rats were orally administered the test compound. Sixty minutes later, the pad of a hind paw of the rat was injected with 0.1 ml of 1% carrageenin solution. After edema was formed on the paw, paw volume and body temperature of the rat were measured, and movement of the rat was observed. As a result, both 3-amino-5-chloroindazole and Compound (46) show a strong inhibition to the edema, that is, 65% and 59%, respectively,after 3 hours from the injection.

[2] = Body temperature / side effects in carrageenin-treated rats; type: in vivo, female Wister rats
Procedure: as §1

[3] = Locomotor activity observation in carrageenin-treated rats; type: in vivo, female Wister rats; settings: oral, carrageenin-injected rats
Procedure: as §1

[4] = test system: Carrageenin edema in rat's paw; assay: Carrageenin Edema Test in Rat's Paw (anti-inflammatory activity, Table 1); type: in vivo; settings: 100 mg/kg oral, hydrochloride, rat
Procedure: An anti-inflammatory activity was measured by orally administering 100 mg/kg of a hydrochloride of the indazole derivative of this invention as set forth in Table 1 to an animal in accordance with the standard method of Carrageenin Edema Test in Rat's Paw described in C. A. Winter et al., Proc. Soc. Exp. Biol. Med., 111, 544 (1962).

[5] = test system: Bradykinin inducing edema; assay: Anti-edema test, bradykinin inducing edema (Table 2); type: in vivo, rat; settings: 100 mg/kg oral, after 30 minutes
Procedure: (§2) […] A. Winter et al., NonSteroidal Anti-inflammatory Drugs. As an edema inducing substance, bradykinin, histamine and serotonin were employed. […] Bradykinin inducing edema inhibition and histamine inducing edema inhibition were measured after 30 minutes of the administration, and serotonin inducing edema inhibition was measured after 3 hours of the administration.

Histamine inducing edema = assay: Anti-edema test, histamine inducing edema (Table 2); type: in vivo, rat; settings: 100 mg/kg oral, after 30 minutes
Procedure: as §2

Serotonin inducing edema = assay: Anti-edema test, serotonin inducing edema (Table 2); type: in vivo, rat; settings: 100 mg/kg oral, after 3 hours
Procedure: as §2

acetic acid-writing = assay: Analgesic activity, acetic acid-writing test (Table 3); type: in vivo, animal (rat); standard mouse acetic acid-writing test; settings: 100 mg/kg oral
in vivo = settings: mouse, ip, intraperitoneal, hydrochloride, male ddy mice

Structure (SMILES) | inhibition to the (carrageenin) edema [1] [%] | decrease of body temperature ([2]; oral, carrageenin-injected rats) | depression of locomotor activity [3] | inhibition in vivo at 100 mg/kg [4] [%] | Bradykinin inducing edema Inhibition [5] [%] | Histamine inducing edema Inhibition (Histamine inducing edema) [%] | Serotonin inducing edema Inhibition (Serotonin inducing edema) [%] | Carrageenin edema inhibition activity relative to 3-amino-5-chloroindazole [1] | side effects (decrease of body temperature, depression of locomotor activity), words ([2]; relative to 3-amino-5-chloroindazole) | Inhibition (acetic acid-writing, analgesic activity) (acetic acid-writing) [%] | LD50 (in vivo) [mg/kg]
Nc1n[nH]c2ccc(Cl)cc12 [3-amino-5-chloroindazole, reference compound] | 65 | 3-4 °C | remarkable depression of locomotor activity | – | – | – | – | – | – | – | –
CCN(CC)CCCNc1n[nH]c2ccc(Cl)cc12 [(46), 3-(3-Diethylaminopropylamino)-5-chloroindazole] | 59 | – | – | 59 | 14.7 | 31.0 | 73.4 | the same Carrageenin edema inhibition activity as 3-amino-5-chloroindazole | can relieve the side effects of 3-amino-5-chloroindazole | 52 | 211
